What was measured:
p53-deleted cells HCT116 = assay: apoptosis (TUNEL) in p53-deleted HCT116 cells with vegf siRNA and 5-FU; type: cell-based, human; conditions: p53-deleted cells HCT116, treatment with 5-FU
Procedure: Apoptotic cells were evaluated by a TUNEL staining method using in situ Cell Death Detection kit (Roche Diagnostic). […] The counting was performed with respect to at least 300 cells in one measurement.
Various types of cells were treated with 5-FU, which is an anticancer agent inducing apoptosis in a p53-dependent manner, and the sensitivity to apoptosis was analyzed. The vegf siRNA#1 vectors expressing siRNA#1, the vegf siRNA #2 vectors expressing siRNA #2, and the control siRNA vectors described above respectively were transfected into HCT 116 (parent cells) and p53-deleted cells HCT116. Then, the cells after 18 hours from the transfection was treated for 60 hours in the presence of […] of 5-FU (+) or in the absence of 5-FU (−). The proportion (%) of apoptosis positive cells in the thus-treated cells was calculated based on “Apoptotic evaluation 2” above (means±SD, n=4).

HepG2 cells = assay: apoptosis (Apoptotic evaluation 1) of siRNA-expressing HepG2 cells treated with 5-FU; type: cell-based, human; conditions: control siRNA-expressing HepG2 cells treated with 5-FU
Procedure: Objective cells were treated with various anticancer agents, and then incubated with trypsin/EDTA to prepare cell suspensions. The cell suspensions were centrifuged and supernatants thereof were removed. Thereafter, the cell suspensions each were immobilized and stained with a solution of formaldehyde of 3.7%, Nonidet P40 of 0.5%, and 10 μg/mL of Hoechst33258 (Invitrogen) in PBS. […] The counting was performed with respect to at least 300 cells in one measurement.
Each type of the recombinant vectors was transfected into HepG2 cells for 18 hours in the same manner as in the above-described item (1). Each type of the transfection cells was treated with an anticancer agent “5-FU” having a predetermined concentration (0, 10, 30 μmol/L) for 60 hours. Then, the apoptosis (%) of the treated cells was examined according to “Apoptosis evaluation 1”. FIG. 1B is a graph showing apoptosis (%) in each type of the cells treated with 5-FU having a predetermined concentration (means±SD, n=3).

HCT116 cells [1] = assay: apoptosis of siRNA-expressing HCT116 cells treated with low-concentration anticancer agents, with or without rVEGF; type: cell-based, human; conditions: HCT116 not expressing siRNA (NT) and control siRNA cells, low concentrations, 60 hours
Procedure: The recombinant vectors that express vegf siRNA#1 and #2 and the vectors that express control siRNA were transfected into HCT116 cells (parent cells, wild-type p53). As a control cell, an HCT116 cell not transfected with a recombinant vector that expresses siRNA was used. These four types of cells were treated in the presence or absence of various anticancer agents having the final concentrations as described below for 60 hours. As the anticancer agent, etoposide (20 μmol/L), doxorubicin (170 nmol/L), and 5-FU (40 μmol/L) were used. With respect to the treated cells, apoptosis (%) was quantified in the same manner as in Example A1.
UTR RNA and function of VEGF protein. With the aim of clarifying an effect of blocking the function of vegf 5′ UTR RNA, recombinant VEGF protein (R&D systems, hereinafter referred to as “rVEGF”) was added to a culture supernatant of cells transfected with vegf siRNA in order to add VEGF protein that is decreased due to siRNA. […] Therefore, in Example A9, 1 ng/ml of rVEGF protein was added to the four types of cells. […] Then, these transfection cells were treated with anticancer agents in the same manner as described above.

[2] = test system: noxa mRNA, puma mRNA, and p21 mRNA; assay: expression of mRNAs induced in p53 pathways in HepG2 cells (Northern); type: cell-based, human; conditions: control siRNA HepG2 cells, 5-FU 30 μmol/L, 16 hours
Procedure: In the same manner, HepG2 cells transfected with each type of the vectors were treated for 16 hours in the presence of 5-FU (30 μmol/L) (+) or the absence of 5-FU (−). With respect to the treated cells, expression of noxa mRNA, puma mRNA, and p21 mRNA induced in p53 pathways was analyzed by the Northern blotting. […] In FIG. 1D, the first row from the top indicates expression of noxa mRNA, the second row indicates expression of puma mRNA, the third row indicates expression of p21 mRNA, and the fourth row indicates expression of gapdh mRNA. Definitions of the lanes in FIG. 1D are the same as those of FIG. 1C.

HCT116 cells [3] = assay: p53 mRNA, vegf IresRNA and vegf mRNA in HCT116 cells exposed to genotoxic stress (Northern); type: cell-based, human
Procedure: HCT116 cells (parent cells) were exposed to genotoxic stress that upregulates the expression of p53 mRNA. […] Also, HCT116 cells were exposed to UV-B for 1 minute. Then, after placing them under non-exposed conditions for a predetermined time (6, 12 hours), the expressions were examined in the same manner as in the above.

p53 mRNA [4] = assay: cell-free protein synthesis reaction after heteroduplex formation; type: biochemical, human; conditions: cell-free protein synthesis with p53 mRNA/5′ UTR RNA heteroduplex, cycloheximide added
Procedure: (5) Detection of p53 mRNA and its Degradation Product In the same manner as in the above-described item (3), mutant 5′ UTR RNA or 5′ UTR was incubated with p53 mRNA. As described above, mutant 5′ UTR RNA and p53 mRNA form a heteroduplex by incubation. Then, using the treated RNA samples, in the presence or absence of cycloheximide (final concentration of […]) or in the presence of purified ribosome prepared by a sucrose density-gradient centrifugation method, a cell-free protein synthesis reaction was performed. The cell-free protein synthesis was carried out by making reference to the research paper (Huez, I. et al. Mol. Cell. Biol. 18, 6178-6190 (1998)) or using Wako PURE system (trade name, Wako Chemical) following the specifications thereof.
In the same manner as in the above-described item (4), RNAs each were incubated in the combination shown in FIG. 8E, and cell-free protein synthesis was carried out. In this state, [^35S] methionine coexisted in a reaction solution of cell-free protein synthesis. Then, p53 protein synthesized in vitro was separated by SDS-PAGE using a polyacrylamide gel of 12%, and a dried gel was subjected to an autoradiography. FIG. 8E is an autoradiography showing synthesis of p53 protein in a reaction solution of cell-free protein in the presence of vegf 5′ UTR. […]

p53 mRNA [5] = assay: degradation/silencing of exogenous p53 mRNA in H1299 cells (Northern); type: cell-based, human; conditions: H1299, cycloheximide 50 μg/ml, 16 hours
Procedure: In the same manner as in Example A4, the p53 expression vectors and each type of the recombinant plasmid vectors, pVC and pVCmut5′, or empty vectors (mock) were cotransfected into H1299 cells (p53 null), and the cells were cultured for 12 hours. RNA was collected from each type of the transfection cells, the RNA was separated by a denatured agarose gel electrophoresis, and exogenous p53 mRNA and its degradation product were detected by the Northern blotting. FIG. 7A is a photograph showing exogenous p53 mRNA and its degradation product in each type of the cells. In FIG. 7A, the lane 1 “mock” indicates the result obtained regarding the cells transfected with the empty vectors, the lane 2 “VEGF mut5′” indicates the result obtained regarding the cells transfected with pVCmut5′, and the lane 3 “VEGF 5” indicates the result obtained regarding the cells transfected with pVC. The size (nt) of an RNA marker (Ambion, Inc.) was shown on the left of the photograph of blotting.
First, the p53 expression vectors and each type of the recombinant plasmid vectors, pVC and pVCmut5′, were cotransfected into H1299 cells (p53 null), and the cells were cultured for 8 hours. […] With respect to the treated cells, the expression level of p53 mRNA was analyzed by the Northern blotting. […]

vegf IresRNA = assay: p53 mRNA in p53-deleted HCT116 cotransfected with p53 vector, vegf IresRNA vector and decoy or antisense LNA-DNA (Northern); type: cell-based, human
[6] = test system: HCT116 cells (wild-type p53); assay: survival rate of HCT116 cells transfected with decoy or antisense LNA-DNA after 5-FU; type: cell-based, human; conditions: after 5-FU (40 μmol/L)
Procedure: The wild-type and mutant-type p53 decoy LNA-DNA were transfected into HCT116 cells (wild-type p53). The cells transfected with the decoys were cultured in McCoy's 5A medium containing 10% fetal bovine serum and 100 μg/ml (100 units/ml) of streptomycin, and the relative value of the survival rate (%) was calculated according to “Apoptosis evaluation 2”. The relative value was obtained with the number of viable cells of 5-FU untreated cells being considered as 100%. In addition, the survival rate of HCT cells (p53) not transfected with the decoys also was calculated in the same manner as described above.
The wild-type and mutant-type vegf antisenses were transfected into HCT116 cells (wild-type p53). With respect to the cells transfected with the antisenses, the relative value of the survival rate (%) was calculated in the same manner as in Example C4. The relative value was obtained with the number of viable cells of 5-FU untreated cells being considered as 100%. In addition, the survival rate of HCT cells (wild-type p53) not transfected with the vegf antisenses was also calculated in the same manner as described above.

[7] = vegf antisense LNA-DNA cotransfected with vegf IresRNA and p53 expression vectors

Molecule: O=c1[nH]cc(F)c(=O)[nH]1 [5-FU, 5-fluorouracil, reference compound]
- proportion of apoptosis (p53-deleted cells HCT116): increased slightly
- proportion of apoptosis (HepG2 cells): slightly increased
- significant enhancement of apoptosis (HCT116 cells [1]): not induced
- expression of p21 mRNA [2]: slightly induced
- vegf IresRNA and vegf mRNA expression (HCT116 cells [3]; HCT116, 5-FU 80 μmol/L or MMC 6 μg/ml, 0, 6, 12 hours): increased markedly
- expression of the p53 mRNA (HCT116 cells [3]; HCT116, 5-FU 80 μmol/L, MMC 6 μg/ml or cisplatin 5 μg/ml, 0, 6, 12 hours): suppressed

Molecule: C[C@@H]1C[C@@H]([C@H](O)CC2CC(=O)NC(=O)C2)C(=O)[C@@H](C)C1 [cycloheximide]
- effect on partial degradation of p53 mRNA (p53 mRNA [4]): completely blocked
- effect on silencing of p53 mRNA due to vegf 5′ UTR (p53 mRNA [5]): marked inhibition of silencing

Molecule: COc1cccc2c1C(=O)c1c(O)c3c(c(O)c1C2=O)C[C@@](O)(C(=O)CO)C[C@@H]3O[C@H]1C[C@H](N)[C@H](O)[C@H](C)O1 [doxorubicin, reference compound]
- significant enhancement of apoptosis (HCT116 cells [1]): not induced

Molecule: COc1cc([C@@H]2c3cc4c(cc3[C@@H](O[C@@H]3O[C@@H]5CO[C@@H](C)O[C@H]5[C@H](O)[C@H]3O)[C@H]3COC(=O)[C@H]23)OCO4)cc(OC)c1O [etoposide, reference compound]
- significant enhancement of apoptosis (HCT116 cells [1]): not induced

Molecule: mutant-type p53 decoy: LNA-DNA of the p53 decoy sequence introduced with mutation, SEQ ID NO: 94, 5′-cccGCcCACCcGGctgGTcca-3′ (DNA CCCGCCCACCCGGCTGGTCCA; LNA-DNA mixmer, LNA positions not given here)
- expression amount of p53 mRNA (vegf IresRNA; p53 decoy LNA-DNA cotransfected with vegf IresRNA and p53 expression vectors): small

Molecule: mutant-type vegf antisense: antisense LNA-DNA having the sequence introduced with mutation, SEQ ID NO: 95, 5′-cccGCcCGggTcGTcCgcAccA-3′ (antisense CCCGCCCGGGTCGTCCGCACCA; LNA-DNA mixmer, LNA positions not given here)
- expression amount of p53 mRNA (vegf IresRNA; [7]): small

Molecule: wild-type p53 decoy: LNA-DNA corresponding to a sequence from base 462 to base 482 of p53 mRNA, SEQ ID NO: 93, 5′-ccccgcgtggcccctgcacca-3′ (DNA CCCCGCGTGGCCCCTGCACCA; LNA-DNA mixmer, LNA positions not given here)
- survival rate of cells ([6]; p53 decoy, vs no decoy and mutant-type decoy): decreased

Molecule: wild-type vegf antisense: antisense LNA-DNA complementary to bases 693 to 714 of vegf IresRNA, SEQ ID NO: 74, 5′-ccccgcgcggaccacggctcct-3′ (antisense CCCCGCGCGGACCACGGCTCCT; LNA-DNA chimera, LNA positions not given here)
- expression amount of p53 mRNA (vegf IresRNA; [7]): marked expression amount
- survival rate of cells ([6]; vegf antisense, vs cells (none) not transfected): markedly decreased
